From patent US20210386695A1 (priority 2020, published 2021)
pEC50: −log10 of the molar value.

Columns and labels:
Format in all cases: cell-based
[1] = tested on: B.1.1.7 variant of SARS-CoV-2 pseudo-particles; test: microbe, parasite or virus in culture; details: Severe acute respiratory syndrome coronavirus 2, Vero C1008
[2] = tested on: B.1.1.7 variant of SARS-CoV-2 pseudo-particles
[3] = tested on: B.1.1.7 variant of SARS-CoV-2 pseudo-particles; remark: listed apart in the source
[4] = tested on: 501Y-V2 variant of SARS-CoV-2 pseudo-particles; test: microbe, parasite or virus in culture; details: Severe acute respiratory syndrome coronavirus 2, Vero C1008

With `CCN(CC)C(=S)SSC(=S)N(CC)CC` [disulfiram] the pEC50 [1] was 5.50, the “inhibitory capacity in furin-expressing Vero E6 cells compared with Vero E6 cells” value [2] was “similar” and the “block of viral pseudo-particles infection” value [3] was “dose-dependent manner”. It also gave a pEC50 [4] of 5.42.
